# Reference: BindingDB's records for patent US20240182453 (Boehringer Ingelheim International, 2024)
# Molecular target: Metabotropic glutamate receptor 4 (Homo sapiens, UniProt Q14833)
# Test: In Vitro Testing of mGluR4 Potency
# Experimental: The in vitro activity of the compounds according to the invention may be investigated as follows:[0111]The HEK293 cell overexpressing the human metabotropic Glutamate 4 receptor are thawed at 37 C. and immediately diluted with cell culture medium. After centrifugation, the cell pellet is re-suspended in medium and then distributed from a stirred spinner flask into the wells of the assay plate. The plates are incubated for one hour at room temperature before they are incubated for 24 hours at 37 C./5% CO2. After washing the cells in the plate three times with 80 uL HBSS/HEPES buffer (10 uL buffer remained in the wells after washing), 5 uL per well of compounds diluted in HBSS/HEPES buffer containing 0.2% BSA (final concentration: 0.1%) and 1 mM IBMX (final concentration: 0.5 mM) are added to the wells of the assay plate. Thereafter 5 uL per well of L-Glutamic acid (final concentration: 10 uM), forskolin (final concentration: 1 uM) and 1 mM IBMX (final concentration: 0.5 mM) dissolved in HBSS/HEPES buffer containing 0.2% BSA (final concentration: 0.1%) are added to the assay plate (final DMSO concentration: 1%). […] The emission at 615 nm and 665 nm (Excitation wavelength: 320 nm) are measured on the EnVision reader (Perkin Elmer). The ratio between the emission at 665 nm and 615 is calculated by the reader. […]
# Chain of Metabotropic glutamate receptor 4 (Q14833 whole entry): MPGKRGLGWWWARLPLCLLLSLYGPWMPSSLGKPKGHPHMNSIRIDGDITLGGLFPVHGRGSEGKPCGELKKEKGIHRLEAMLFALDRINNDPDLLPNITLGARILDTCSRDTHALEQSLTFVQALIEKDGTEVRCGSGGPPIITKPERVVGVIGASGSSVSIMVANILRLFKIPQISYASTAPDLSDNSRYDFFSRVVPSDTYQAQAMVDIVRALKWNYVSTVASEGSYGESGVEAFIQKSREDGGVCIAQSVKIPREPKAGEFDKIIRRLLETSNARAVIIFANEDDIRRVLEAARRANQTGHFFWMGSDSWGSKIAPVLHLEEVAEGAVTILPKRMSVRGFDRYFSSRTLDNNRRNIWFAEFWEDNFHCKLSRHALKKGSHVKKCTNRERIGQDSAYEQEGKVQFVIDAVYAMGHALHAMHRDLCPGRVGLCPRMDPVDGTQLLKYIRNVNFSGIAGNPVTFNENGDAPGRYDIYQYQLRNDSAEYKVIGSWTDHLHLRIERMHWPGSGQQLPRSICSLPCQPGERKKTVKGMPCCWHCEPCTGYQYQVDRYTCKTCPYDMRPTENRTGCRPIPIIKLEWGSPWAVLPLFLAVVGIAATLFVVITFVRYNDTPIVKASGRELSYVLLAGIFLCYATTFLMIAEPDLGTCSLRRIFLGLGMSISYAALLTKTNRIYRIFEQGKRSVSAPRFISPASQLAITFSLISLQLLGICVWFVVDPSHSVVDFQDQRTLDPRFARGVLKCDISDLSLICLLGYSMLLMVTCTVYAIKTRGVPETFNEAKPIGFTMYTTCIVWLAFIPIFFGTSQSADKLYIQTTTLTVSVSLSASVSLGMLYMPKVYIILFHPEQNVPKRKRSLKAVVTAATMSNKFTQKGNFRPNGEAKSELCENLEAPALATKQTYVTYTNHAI
compound,measurement,value
"Cc1cnc(C(=O)N[C@H](c2nc3cc(F)c(F)cc3n2C)C2CC2)cn1 [US20240182453, Example 66]",IC50,23 nM
